Like-named read-outs stand apart in the source and are kept apart here. Blank lines part the entries; values can stand above or below the molecule they belong to.
How the values were obtained:
UGT2B15 = target: T1, UGT2B15 (Homo sapiens, UniProt P54855)
T1 sequence (P54855 24-530): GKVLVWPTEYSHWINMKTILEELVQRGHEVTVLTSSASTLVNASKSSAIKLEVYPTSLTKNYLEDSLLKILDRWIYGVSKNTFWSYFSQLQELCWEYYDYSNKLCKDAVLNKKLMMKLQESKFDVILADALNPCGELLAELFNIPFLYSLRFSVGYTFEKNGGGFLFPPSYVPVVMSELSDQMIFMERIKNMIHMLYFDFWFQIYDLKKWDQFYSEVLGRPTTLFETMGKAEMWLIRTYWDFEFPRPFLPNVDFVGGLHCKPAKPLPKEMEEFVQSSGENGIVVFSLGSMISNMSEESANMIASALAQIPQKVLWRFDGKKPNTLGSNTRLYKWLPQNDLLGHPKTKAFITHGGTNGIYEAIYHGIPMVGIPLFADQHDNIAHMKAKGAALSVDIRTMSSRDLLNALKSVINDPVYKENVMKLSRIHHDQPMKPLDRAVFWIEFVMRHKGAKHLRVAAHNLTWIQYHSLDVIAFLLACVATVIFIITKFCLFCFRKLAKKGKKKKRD
Protocol: (§1) Recombinant human UGTs 1A1, 1A6, 1A7, 1A8, 1A10, 2A1, 2B4, 2B7 and 2B17 were expressed as His-tagged proteins in baculovirus-infected insect cells as described previously [14]. […] Protein concentrations were determined by the BCA method (Pierce Biotechnology, Rockford, IL, USA).
(§2) The protein concentrations and incubation times for the enzyme kinetic assays were selected based on preliminary assays in order to ensure that the product formation was within the linear range with respect to both protein concentration and time, and that the substrate consumption during the reaction was less than 10%. The initial velocity measurements were performed in either duplicates or triplicates and they are presented as the average values and S.E.
(§3) The glucuronidation rates by recombinant enzymes are reported as “expression normalized” values. The relative expression level of each recombinant UGT that was produced in our laboratory was determined using immunoblotting, as previously described [14], [19]. The dot blot assays were performed in triplicate and the average value was used for normalization. […] The “expression normalized” glucuronidation rates were calculated by dividing the measured glucuronidation rates with relative expression level of the each given recombinant UGT.
(§4) In assays containing BSA, the total concentrations of substrate were corrected according to the measured drug binding to BSA, under the specific conditions of each glucuronidation assay. The statistical significance of the difference in enzyme kinetics parameters upon BSA addition was tested with extra sum-of-squares F-test (included in the GraphPad software, [20]. The initial glucuronidation rates were fitted to the following equations:

BSA = BSA (Bos taurus, UniProt P02769); test: in vitro; conditions: bovine
UGT2B4 = target: T2, UGT2B4 (Homo sapiens, UniProt P06133); test: UGT2B4-catalyzed glucuronidation, enzyme kinetics
T2 sequence (P06133 24-528): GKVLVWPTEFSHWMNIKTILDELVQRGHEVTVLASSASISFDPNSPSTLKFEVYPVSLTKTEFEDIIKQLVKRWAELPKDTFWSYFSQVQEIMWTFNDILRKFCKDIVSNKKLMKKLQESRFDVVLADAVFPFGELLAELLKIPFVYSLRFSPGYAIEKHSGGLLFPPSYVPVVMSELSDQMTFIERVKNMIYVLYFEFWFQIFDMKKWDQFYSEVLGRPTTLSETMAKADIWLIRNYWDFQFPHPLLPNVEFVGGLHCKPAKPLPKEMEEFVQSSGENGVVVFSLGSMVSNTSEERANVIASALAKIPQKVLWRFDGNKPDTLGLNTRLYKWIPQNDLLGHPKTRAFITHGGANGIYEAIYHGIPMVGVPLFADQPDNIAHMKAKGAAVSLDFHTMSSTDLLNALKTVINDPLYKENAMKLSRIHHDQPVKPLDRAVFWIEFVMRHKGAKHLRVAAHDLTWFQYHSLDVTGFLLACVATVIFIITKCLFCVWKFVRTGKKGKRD
Protocol: (§5) Protein concentrations were determined by the BCA method (Pierce Biotechnology, Rockford, IL, USA).
as §2
(§6) The glucuronidation rates by recombinant enzymes are reported as “expression normalized” values. […] The dot blot assays were performed in triplicate and the average value was used for normalization. […] The “expression normalized” glucuronidation rates were calculated by dividing the measured glucuronidation rates with relative expression level of the each given recombinant UGT.
as §4

[1] = Drug binding to control insect cell membranes by RED; conditions: 0.2 mg/mL total protein in the membrane
[2] = Nonspecific binding to the RED device; conditions: rapid equilibrium dialysis
UGT1A6 = target: T3, UGT1A6 (Homo sapiens, UniProt P19224); test: UGT1A6-catalyzed glucuronidation, enzyme kinetics; conditions: No BSA; expression level-normalized
T3 sequence (P19224 27-532): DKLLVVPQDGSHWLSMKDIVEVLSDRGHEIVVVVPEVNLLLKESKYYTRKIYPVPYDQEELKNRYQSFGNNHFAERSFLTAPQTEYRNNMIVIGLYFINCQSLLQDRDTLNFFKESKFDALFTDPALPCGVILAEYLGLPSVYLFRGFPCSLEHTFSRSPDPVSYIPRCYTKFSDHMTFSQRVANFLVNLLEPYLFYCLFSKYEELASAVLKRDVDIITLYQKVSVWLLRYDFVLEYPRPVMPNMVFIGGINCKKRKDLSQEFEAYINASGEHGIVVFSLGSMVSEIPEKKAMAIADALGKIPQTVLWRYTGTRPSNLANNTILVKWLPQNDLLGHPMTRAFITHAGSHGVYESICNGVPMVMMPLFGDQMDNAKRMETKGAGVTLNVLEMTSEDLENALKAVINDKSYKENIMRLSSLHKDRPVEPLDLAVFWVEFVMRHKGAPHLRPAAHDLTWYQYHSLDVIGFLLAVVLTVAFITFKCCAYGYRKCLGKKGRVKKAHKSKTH
Protocol: as §1, §2, §3, §4

UGT1A1 [3] = target: T4, UGT1A1 (Homo sapiens, UniProt P22309); conditions: read-out: No BSA: K m or S 50 ± S.E. (95% CI)
T4 sequence (P22309 26-533): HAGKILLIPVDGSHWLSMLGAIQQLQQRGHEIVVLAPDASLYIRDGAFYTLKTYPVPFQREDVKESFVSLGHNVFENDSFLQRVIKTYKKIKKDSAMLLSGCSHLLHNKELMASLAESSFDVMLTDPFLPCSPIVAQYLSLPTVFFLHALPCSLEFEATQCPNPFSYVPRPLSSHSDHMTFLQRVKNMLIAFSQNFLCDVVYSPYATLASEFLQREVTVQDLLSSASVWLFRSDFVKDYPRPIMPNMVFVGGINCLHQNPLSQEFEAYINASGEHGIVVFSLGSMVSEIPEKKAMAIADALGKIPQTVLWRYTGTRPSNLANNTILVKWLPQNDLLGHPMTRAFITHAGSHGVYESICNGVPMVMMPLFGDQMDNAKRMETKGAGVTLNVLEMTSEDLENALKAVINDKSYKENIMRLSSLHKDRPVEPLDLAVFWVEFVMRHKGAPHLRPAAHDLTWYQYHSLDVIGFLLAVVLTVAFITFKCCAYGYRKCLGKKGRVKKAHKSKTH
Protocol: as §1, §2
The HPLC system consisted of an Agilent 1100 series degasser, binary pump, 100-vial autosampler, thermostated column compartment, multiple wavelengths UV detector, and fluorescence detector (Agilent Technologies, Palo Alto, CA, USA). […] The resulting chromatograms were analyzed with Agilent ChemStation software (rev. B.01.01) on Windows XP Professional. […] The resulting chromatograms were analyzed with Empower 2 software (Build 2154, Waters, Milford, MA, USA) on Windows XP Professional operating system. The limits of detection and quantification were estimated based on signal-to-noise ratios of 3 and 10, respectively. […]

UGT1A7 = target: T5, UGT1A7 (Homo sapiens, UniProt Q9HAW7); test: UGT1A7-catalyzed glucuronidation, enzyme kinetics; type: in vitro ADME
T5 construct: His-tag; made in house; host or cells: baculovirus-infected insect cells (Sf9)
T5 sequence (Q9HAW7 26-530): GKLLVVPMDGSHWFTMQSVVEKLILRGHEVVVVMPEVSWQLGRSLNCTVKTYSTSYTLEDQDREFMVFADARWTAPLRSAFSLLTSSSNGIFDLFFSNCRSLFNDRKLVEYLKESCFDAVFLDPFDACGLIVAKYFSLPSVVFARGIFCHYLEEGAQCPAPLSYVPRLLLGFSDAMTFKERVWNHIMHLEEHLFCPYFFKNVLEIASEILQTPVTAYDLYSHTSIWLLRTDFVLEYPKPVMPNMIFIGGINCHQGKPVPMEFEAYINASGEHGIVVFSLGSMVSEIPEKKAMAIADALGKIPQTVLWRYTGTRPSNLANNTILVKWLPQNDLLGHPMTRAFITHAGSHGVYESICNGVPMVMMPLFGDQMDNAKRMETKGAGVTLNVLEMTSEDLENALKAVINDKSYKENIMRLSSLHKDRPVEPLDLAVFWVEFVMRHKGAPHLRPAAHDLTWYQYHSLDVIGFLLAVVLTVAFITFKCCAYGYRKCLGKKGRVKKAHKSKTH
Protocol: as §5, §2
The glucuronidation rates by recombinant enzymes are reported as “expression normalized” values. […] The “expression normalized” glucuronidation rates were calculated by dividing the measured glucuronidation rates with relative expression level of the each given recombinant UGT.
The enzyme kinetic parameters were obtained by fitting kinetic models to the experimental data using GraphPad Prism version 5.04 for Windows (GraphPad Software Inc., San Diego, CA, USA).

[4] = tested on: UGT1A9 expressed in Sf9 insect cells; conditions: darexaban glucuronidation; cited from earlier work
UGT2A1 = target: T6, UGT2A1 (Homo sapiens, UniProt P0DTE4); test: UGT2A1-catalyzed glucuronidation, enzyme kinetics; conditions: 0.1% BSA vs no BSA
T6 sequence (P0DTE4 21-527): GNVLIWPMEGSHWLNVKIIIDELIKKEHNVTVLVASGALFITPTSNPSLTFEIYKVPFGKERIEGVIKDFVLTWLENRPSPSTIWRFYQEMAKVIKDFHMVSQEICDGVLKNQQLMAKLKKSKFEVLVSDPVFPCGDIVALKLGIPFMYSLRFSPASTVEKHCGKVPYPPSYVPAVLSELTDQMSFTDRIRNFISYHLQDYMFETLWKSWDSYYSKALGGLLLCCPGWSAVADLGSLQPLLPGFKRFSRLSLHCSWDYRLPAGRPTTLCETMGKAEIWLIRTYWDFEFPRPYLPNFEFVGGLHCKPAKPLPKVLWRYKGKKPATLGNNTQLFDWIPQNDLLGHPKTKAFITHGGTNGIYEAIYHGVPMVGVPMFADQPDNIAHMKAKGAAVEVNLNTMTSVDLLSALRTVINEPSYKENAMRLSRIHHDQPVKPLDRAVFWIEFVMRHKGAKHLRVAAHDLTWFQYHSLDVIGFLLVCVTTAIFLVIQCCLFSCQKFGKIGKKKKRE
Protocol: as §1, §2, §3, §4

UGT1A10 = target: T7, UGT1A10 (Homo sapiens, UniProt Q9HAW8); test: UGT1A10-catalyzed glucuronidation, enzyme kinetics; type: in vitro ADME; conditions: No BSA; expression level-normalized; estradiols: 3-glucuronide formation
T7 construct: His-tag; made in house; host or cells: baculovirus-infected insect cells (Sf9)
T7 sequence (Q9HAW8 26-530): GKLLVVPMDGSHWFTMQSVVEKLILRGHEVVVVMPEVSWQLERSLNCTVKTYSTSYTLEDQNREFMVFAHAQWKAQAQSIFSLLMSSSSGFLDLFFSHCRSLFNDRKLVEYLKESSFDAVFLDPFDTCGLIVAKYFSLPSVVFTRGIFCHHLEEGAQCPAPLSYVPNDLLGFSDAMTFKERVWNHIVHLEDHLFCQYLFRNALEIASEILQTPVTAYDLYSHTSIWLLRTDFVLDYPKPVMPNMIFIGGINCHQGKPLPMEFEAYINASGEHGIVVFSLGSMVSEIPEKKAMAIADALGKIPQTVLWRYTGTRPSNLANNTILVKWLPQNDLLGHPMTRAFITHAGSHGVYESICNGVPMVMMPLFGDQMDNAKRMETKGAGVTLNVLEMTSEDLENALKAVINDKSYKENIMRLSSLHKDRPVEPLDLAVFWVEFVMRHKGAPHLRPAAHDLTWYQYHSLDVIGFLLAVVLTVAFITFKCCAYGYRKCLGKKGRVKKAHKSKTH
Protocol: as §1, §2
The glucuronidation rates by recombinant enzymes are reported as “expression normalized” values. The relative expression level of each recombinant UGT that was produced in our laboratory was determined using immunoblotting, as previously described [14], [19]. […] The “expression normalized” glucuronidation rates were calculated by dividing the measured glucuronidation rates with relative expression level of the each given recombinant UGT.
In assays containing BSA, the total concentrations of substrate were corrected according to the measured drug binding to BSA, under the specific conditions of each glucuronidation assay.

UGT2B7 = target: T8, UGT2B7 (Homo sapiens, UniProt P16662); conditions: No BSA; expression level-normalized; estradiols: 17-glucuronide formation
T8 sequence (P16662 24-529): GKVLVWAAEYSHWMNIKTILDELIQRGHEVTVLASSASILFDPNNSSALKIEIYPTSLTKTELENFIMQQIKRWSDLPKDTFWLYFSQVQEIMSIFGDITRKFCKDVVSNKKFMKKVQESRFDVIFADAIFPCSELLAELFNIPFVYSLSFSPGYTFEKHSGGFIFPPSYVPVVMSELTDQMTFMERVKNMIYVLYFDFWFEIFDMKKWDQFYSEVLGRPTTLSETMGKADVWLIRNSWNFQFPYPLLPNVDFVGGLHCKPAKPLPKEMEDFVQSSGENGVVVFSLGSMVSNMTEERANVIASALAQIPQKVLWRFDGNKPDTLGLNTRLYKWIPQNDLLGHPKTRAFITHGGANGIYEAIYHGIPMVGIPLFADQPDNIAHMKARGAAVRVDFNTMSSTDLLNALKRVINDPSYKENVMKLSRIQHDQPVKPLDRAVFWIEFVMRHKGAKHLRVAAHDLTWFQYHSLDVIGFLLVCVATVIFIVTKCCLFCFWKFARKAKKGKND
Protocol: as §5, §2, §6, §4

UGT1A1 [5] = target: T4, UGT1A1; test: UGT1A1-catalyzed glucuronidation, enzyme kinetics; conditions: No BSA; expression level-normalized; estradiols: 3-glucuronide formation
Protocol: as §1, §2, §3, §4

Chain of BSA (P02769 25-607): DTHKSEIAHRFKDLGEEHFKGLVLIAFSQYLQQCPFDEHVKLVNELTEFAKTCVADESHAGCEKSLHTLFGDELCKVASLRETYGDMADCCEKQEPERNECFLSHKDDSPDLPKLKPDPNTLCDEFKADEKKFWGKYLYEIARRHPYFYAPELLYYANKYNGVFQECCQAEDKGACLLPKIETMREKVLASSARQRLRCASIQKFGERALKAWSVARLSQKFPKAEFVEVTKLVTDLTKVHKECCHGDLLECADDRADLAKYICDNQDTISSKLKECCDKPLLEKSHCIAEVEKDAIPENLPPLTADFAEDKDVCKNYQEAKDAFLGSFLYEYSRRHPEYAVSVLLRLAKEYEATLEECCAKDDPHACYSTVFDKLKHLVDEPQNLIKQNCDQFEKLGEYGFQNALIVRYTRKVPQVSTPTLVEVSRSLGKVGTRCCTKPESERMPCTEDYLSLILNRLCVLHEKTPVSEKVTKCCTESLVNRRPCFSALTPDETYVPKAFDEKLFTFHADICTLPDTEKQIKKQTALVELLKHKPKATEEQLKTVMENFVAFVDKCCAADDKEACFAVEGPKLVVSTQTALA

Molecule: C[C@]12CC[C@@H]3c4ccc(O)cc4CC[C@H]3[C@@H]1CC[C@H]2O [17α-Estradiol, 17α-estradiol]
V max ± S.E. (UGT2B15): 0.069±0.003(0.062–0.076) nmol•min^–1•mg^–1 | K m or S 50 ± S.E. (UGT2B15; 0.1% BSA, substrate concentration corrected for binding to BSA, 17α-estradiol: 3-glucuronide formation): 5.58±0.56 ^***(4.24–6.74) µM | fraction unbound at 8 h (BSA): 0.49 ± 0.01 | K m or S 50 ± S.E. (UGT2B4): 1.60±0.23 ^***(1.12–2.08) µM | V max ± S.E. (UGT2B4): 0.053±0.002(0.048–0.058) nmol•min^–1•mg^–1 | binding to control insect cell membrane [1]: negligible

Molecule: 17β-estradiol
Km (UGT1A1 [3]): 7.84 µM

Molecule: bovine serum albumin [BSA]
V max increase on inclusion of 0.1% BSA (UGT1A7; 0.1% BSA vs no BSA): up to 7 fold | effect of 2% BSA instead of 0.1% BSA [4]: very little effect | decrease of K m values on inclusion of 0.1% BSA (UGT2A1): up to 20 fold

The remaining lines, values ahead:

fraction unbound at 6 h (BSA): 0.84 to 0.97 | nonspecific binding to the RED device [2]: ≤ 10% | V max ± S.E. (UGT1A6): 7.0±0.8(5.3–8.7) nmol•min^–1•mg^–1
Molecule: Oc1ccc2cc[nH]c2c1 [6-Hydroxyindole, 6-hydroxyindole]

V max ± S.E. (UGT1A7; No BSA, expression level-normalized): 0.25±0.01(0.22–0.28) nmol•min^–1•mg^–1 | V max ± S.E. (UGT1A10): 8.0±0.3(7.3–8.7) nmol•min^–1•mg^–1 | V max ± S.E. (UGT2B7): 0.28±0.03(0.22–0.34) nmol•min^–1•mg^–1 | V max ± S.E. (UGT2B15; No BSA, measured rates, not expression normalized, 17α-estradiol: 3-glucuronide formation): 0.83±0.01(0.82–0.85) nmol•min^–1•mg^–1 | V max ± S.E. (UGT1A1 [5]): 0.11±0.004(0.11–0.12) nmol•min^–1•mg^–1 | V max ± S.E. (UGT1A6): 5.2±0.3(4.5–6.0) nmol•min^–1•mg^–1
Molecule: Cc1cc(=O)oc2cc(O)ccc12 [4-MU, 4-Methylumbelliferone]

From paper PMC3553014, “Albumin Stimulates the Activity of the Human UDP-Glucuronosyltransferases 1A7, 1A8, 1A10, 2A1 and 2B15, but the Effects Are Enzyme and Substrate Dependent” (PLoS ONE, 2013)
